{"source": "paper PMC7385619", "about": "“A triple action CDK4/6-PI3K-BET inhibitor with augmented cancer cell cytotoxicity” (Cell Discovery, 2020)", "experiment_in_all_cases": "KINOMEscan assay (Eurofins DiscoverX)", "type_in_all_cases": "binding", "key": {"kinome (kinase panel) [1]": {"target": "T1, kinome (kinase panel) (Homo sapiens, UniProt Q13043)", "T1 construct": "purchased Eurofins DiscoverX", "conditions": "MST1 (Entrez STK4); 1000 nM; read-out: Percent Control"}, "kinome (kinase panel) [2]": {"target": "T2, kinome (kinase panel) (Homo sapiens, UniProt Q8TD19)", "T2 construct": "purchased Eurofins DiscoverX", "conditions": "NEK9; 1000 nM; read-out: Percent Control"}, "kinome (kinase panel) [3]": {"target": "T3, kinome (kinase panel) (Homo sapiens, UniProt Q9P289)", "T3 construct": "purchased Eurofins DiscoverX", "conditions": "MST4; 1000 nM; read-out: Percent Control"}, "kinome (kinase panel) [4]": {"target": "T4, kinome (kinase panel) (Homo sapiens, UniProt P04626)", "T4 construct": "purchased Eurofins DiscoverX", "conditions": "ERBB2; 1000 nM; read-out: Percent Control"}, "kinome (kinase panel) [5]": {"target": "T5, kinome (kinase panel) (Homo sapiens, UniProt O00238)", "T5 construct": "purchased Eurofins DiscoverX", "T5 sequence (O00238 14-502)": "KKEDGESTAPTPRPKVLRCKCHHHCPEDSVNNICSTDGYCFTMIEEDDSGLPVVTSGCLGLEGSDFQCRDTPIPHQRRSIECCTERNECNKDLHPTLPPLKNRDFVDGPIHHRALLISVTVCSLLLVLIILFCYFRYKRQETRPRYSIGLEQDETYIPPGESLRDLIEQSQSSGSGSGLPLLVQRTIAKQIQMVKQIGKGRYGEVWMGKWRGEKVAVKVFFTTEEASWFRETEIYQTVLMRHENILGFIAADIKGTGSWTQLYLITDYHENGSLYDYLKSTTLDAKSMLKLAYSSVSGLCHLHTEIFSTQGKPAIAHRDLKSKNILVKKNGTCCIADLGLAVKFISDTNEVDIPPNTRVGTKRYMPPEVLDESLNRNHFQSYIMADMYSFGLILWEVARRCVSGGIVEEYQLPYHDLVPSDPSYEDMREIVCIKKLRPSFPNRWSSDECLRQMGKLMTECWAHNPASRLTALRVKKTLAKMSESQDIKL", "conditions": "BMPR1B; 1000 nM; read-out: Percent Control"}, "kinome (kinase panel) [6]": {"target": "T6, kinome (kinase panel) (Homo sapiens, UniProt Q13470)", "T6 construct": "purchased Eurofins DiscoverX", "conditions": "TNK1; 1000 nM; read-out: Percent Control"}, "kinome (kinase panel) [7]": {"target": "T7, kinome (kinase panel) (Homo sapiens, UniProt P48730)", "T7 construct": "purchased Eurofins DiscoverX", "conditions": "CSNK1D; 1000 nM; read-out: Percent Control"}, "kinome (kinase panel) [8]": {"target": "T8, kinome (kinase panel) (Homo sapiens, UniProt Q8NEV4)", "T8 construct": "purchased Eurofins DiscoverX", "conditions": "MYO3A; 1000 nM; read-out: Percent Control"}, "kinome (kinase panel) [9]": {"target": "T9, kinome (kinase panel) (Homo sapiens, UniProt Q13131)", "T9 construct": "purchased Eurofins DiscoverX", "conditions": "AMPK-alpha1 (Entrez PRKAA1); 1000 nM; read-out: Percent Control"}, "kinome (kinase panel) [10]": {"target": "T10, kinome (kinase panel) (Homo sapiens, UniProt Q13233)", "T10 construct": "purchased Eurofins DiscoverX", "conditions": "MAP3K1; 1000 nM; read-out: Percent Control"}, "kinome (kinase panel) [11]": {"target": "T11, kinome (kinase panel) (Homo sapiens, UniProt P53778)", "T11 construct": "purchased Eurofins DiscoverX", "conditions": "p38-gamma (Entrez MAPK12); 1000 nM; read-out: Percent Control"}, "kinome (kinase panel) [12]": {"target": "T12, kinome (kinase panel) (Homo sapiens, UniProt P35968)", "T12 construct": "purchased Eurofins DiscoverX", "conditions": "VEGFR2 (KDR); 1000 nM; read-out: Percent Control"}, "kinome (kinase panel) [13]": {"target": "T13, kinome (kinase panel) (Homo sapiens, UniProt P22607)", "T13 construct": "purchased Eurofins DiscoverX", "T13 sequence (P22607 23-806)": "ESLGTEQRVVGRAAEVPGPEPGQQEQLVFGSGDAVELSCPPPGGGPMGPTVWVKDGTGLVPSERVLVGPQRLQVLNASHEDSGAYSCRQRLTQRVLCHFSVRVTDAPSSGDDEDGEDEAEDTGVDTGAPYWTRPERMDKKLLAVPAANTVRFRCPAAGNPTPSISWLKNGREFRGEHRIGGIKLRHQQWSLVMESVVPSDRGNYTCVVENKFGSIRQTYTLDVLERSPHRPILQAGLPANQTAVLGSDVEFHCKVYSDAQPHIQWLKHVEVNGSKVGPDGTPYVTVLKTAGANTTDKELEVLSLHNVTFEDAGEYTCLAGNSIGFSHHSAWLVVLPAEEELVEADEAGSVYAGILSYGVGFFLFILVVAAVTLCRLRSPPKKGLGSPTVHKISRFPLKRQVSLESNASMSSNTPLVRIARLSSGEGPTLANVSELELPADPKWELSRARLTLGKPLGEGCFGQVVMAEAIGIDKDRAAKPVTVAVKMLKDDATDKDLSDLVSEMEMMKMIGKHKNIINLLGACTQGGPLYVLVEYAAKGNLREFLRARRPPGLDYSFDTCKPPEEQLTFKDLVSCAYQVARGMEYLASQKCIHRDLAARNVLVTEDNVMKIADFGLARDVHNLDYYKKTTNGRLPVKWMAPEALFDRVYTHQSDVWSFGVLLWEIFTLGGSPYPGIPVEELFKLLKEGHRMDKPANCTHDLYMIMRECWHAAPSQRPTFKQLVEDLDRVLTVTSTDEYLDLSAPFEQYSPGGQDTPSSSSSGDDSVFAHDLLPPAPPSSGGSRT", "conditions": "FGFR3; 1000 nM; read-out: Percent Control"}, "kinome (kinase panel) [14]": {"target": "T14, kinome (kinase panel) (Homo sapiens, UniProt P42336, H1047Y)", "T14 construct": "purchased Eurofins DiscoverX", "T14 sequence (P42336 whole entry H1047Y)": "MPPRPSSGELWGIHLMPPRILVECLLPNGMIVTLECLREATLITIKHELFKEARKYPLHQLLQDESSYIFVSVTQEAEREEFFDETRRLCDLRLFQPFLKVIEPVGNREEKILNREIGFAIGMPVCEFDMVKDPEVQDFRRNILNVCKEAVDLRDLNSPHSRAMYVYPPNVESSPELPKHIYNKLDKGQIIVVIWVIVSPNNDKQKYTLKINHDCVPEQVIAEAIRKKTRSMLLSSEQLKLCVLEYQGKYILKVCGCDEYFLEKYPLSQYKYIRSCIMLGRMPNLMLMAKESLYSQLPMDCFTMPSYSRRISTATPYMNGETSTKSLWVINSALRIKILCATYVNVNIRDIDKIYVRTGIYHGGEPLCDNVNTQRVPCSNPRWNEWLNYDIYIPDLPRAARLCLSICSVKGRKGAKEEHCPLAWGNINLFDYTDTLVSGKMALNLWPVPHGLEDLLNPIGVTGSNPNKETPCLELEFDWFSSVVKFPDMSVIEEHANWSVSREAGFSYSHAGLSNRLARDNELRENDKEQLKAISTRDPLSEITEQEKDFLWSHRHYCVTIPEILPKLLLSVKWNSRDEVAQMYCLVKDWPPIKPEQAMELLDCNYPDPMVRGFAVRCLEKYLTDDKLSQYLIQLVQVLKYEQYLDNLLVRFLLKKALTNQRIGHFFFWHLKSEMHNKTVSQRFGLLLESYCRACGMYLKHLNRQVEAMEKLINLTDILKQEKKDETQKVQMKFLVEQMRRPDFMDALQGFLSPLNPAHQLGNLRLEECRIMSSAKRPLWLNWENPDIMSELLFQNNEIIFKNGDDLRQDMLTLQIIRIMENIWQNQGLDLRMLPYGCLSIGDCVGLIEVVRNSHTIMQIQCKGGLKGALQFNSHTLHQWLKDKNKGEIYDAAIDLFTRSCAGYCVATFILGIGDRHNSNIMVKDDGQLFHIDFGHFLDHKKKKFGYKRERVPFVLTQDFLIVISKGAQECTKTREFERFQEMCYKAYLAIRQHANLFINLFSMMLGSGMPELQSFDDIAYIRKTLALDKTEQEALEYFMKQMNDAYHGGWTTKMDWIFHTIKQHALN", "conditions": "read-out: Percent Control"}, "kinome (kinase panel) [15]": {"target": "T15, kinome (kinase panel) (Homo sapiens, UniProt O60674)", "T15 construct": "purchased Eurofins DiscoverX", "conditions": "JAK2(JH1domain-catalytic); 1000 nM; read-out: Percent Control"}, "kinome (kinase panel) [16]": {"target": "T16, kinome (kinase panel) (Homo sapiens, UniProt Q8NI60)", "T16 construct": "purchased Eurofins DiscoverX", "T16 sequence (Q8NI60 163-647)": "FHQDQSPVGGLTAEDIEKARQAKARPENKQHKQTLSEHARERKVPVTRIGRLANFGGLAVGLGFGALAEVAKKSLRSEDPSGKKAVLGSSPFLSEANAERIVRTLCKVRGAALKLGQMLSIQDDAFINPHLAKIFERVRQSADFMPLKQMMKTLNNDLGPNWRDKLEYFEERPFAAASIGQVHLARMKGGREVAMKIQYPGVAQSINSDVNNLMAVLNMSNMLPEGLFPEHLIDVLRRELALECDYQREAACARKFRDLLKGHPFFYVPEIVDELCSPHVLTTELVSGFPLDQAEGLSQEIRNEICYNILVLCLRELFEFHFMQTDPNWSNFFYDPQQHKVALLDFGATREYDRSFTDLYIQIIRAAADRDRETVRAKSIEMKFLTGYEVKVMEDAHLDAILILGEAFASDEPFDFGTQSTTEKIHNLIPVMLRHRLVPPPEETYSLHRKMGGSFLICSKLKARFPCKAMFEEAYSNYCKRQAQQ", "conditions": "ADCK3 (Entrez CABC1); 1000 nM; read-out: Percent Control"}, "kinome (kinase panel) [17]": {"target": "T17, kinome (kinase panel) (Homo sapiens, UniProt Q9HAZ1)", "T17 construct": "purchased Eurofins DiscoverX", "conditions": "CLK4; 1000 nM; read-out: Percent Control"}, "kinome (kinase panel) [18]": {"target": "T18, kinome (kinase panel) (Homo sapiens, UniProt P00533)", "T18 construct": "purchased Eurofins DiscoverX", "conditions": "EGFR; 1000 nM; read-out: Percent Control"}, "kinome (kinase panel) [19]": {"target": "T19, kinome (kinase panel) (Mycobacterium tuberculosis, UniProt P9WI81)", "T19 construct": "purchased Eurofins DiscoverX", "conditions": "PKNB(M.tuberculosis) (Entrez pknB); 1000 nM; read-out: Percent Control"}, "kinome (kinase panel) [20]": {"target": "T20, kinome (kinase panel) (Homo sapiens, UniProt P21802)", "T20 construct": "purchased Eurofins DiscoverX", "T20 sequence (P21802 22-821)": "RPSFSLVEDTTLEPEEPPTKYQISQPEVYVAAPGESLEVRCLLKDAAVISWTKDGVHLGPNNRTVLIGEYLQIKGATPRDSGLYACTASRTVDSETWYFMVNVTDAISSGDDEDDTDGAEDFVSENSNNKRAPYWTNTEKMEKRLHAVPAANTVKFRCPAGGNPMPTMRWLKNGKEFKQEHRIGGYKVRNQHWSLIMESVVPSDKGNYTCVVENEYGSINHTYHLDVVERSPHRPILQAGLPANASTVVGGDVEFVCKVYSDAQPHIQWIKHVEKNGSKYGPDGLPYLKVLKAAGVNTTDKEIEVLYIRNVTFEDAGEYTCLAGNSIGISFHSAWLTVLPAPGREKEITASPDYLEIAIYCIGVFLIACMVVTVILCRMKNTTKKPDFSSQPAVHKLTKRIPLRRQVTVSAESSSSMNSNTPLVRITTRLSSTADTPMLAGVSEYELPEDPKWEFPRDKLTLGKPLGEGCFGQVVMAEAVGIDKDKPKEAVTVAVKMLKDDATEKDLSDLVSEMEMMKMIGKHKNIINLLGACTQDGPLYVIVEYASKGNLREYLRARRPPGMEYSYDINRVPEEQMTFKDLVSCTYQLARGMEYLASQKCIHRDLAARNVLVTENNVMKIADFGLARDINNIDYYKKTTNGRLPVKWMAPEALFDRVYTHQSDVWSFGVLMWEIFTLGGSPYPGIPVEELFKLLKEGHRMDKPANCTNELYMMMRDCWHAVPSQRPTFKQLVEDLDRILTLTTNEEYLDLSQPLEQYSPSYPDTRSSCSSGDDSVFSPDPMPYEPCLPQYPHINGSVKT", "conditions": "FGFR2; 1000 nM; read-out: Percent Control"}, "kinome (kinase panel) [21]": {"target": "T21, kinome (kinase panel) (Homo sapiens, UniProt Q8N4C8)", "T21 construct": "purchased Eurofins DiscoverX", "conditions": "MINK (Entrez MINK1); 1000 nM; read-out: Percent Control"}, "kinome (kinase panel) [22]": {"target": "T22, kinome (kinase panel) (Homo sapiens, UniProt Q16659)", "T22 construct": "purchased Eurofins DiscoverX", "conditions": "ERK3 (Entrez MAPK6); 1000 nM; read-out: Percent Control"}, "kinome (kinase panel) [23]": {"target": "T23, kinome (kinase panel) (Homo sapiens, UniProt Q86Y07)", "T23 construct": "purchased Eurofins DiscoverX", "T23 sequence (Q86Y07 whole entry)": "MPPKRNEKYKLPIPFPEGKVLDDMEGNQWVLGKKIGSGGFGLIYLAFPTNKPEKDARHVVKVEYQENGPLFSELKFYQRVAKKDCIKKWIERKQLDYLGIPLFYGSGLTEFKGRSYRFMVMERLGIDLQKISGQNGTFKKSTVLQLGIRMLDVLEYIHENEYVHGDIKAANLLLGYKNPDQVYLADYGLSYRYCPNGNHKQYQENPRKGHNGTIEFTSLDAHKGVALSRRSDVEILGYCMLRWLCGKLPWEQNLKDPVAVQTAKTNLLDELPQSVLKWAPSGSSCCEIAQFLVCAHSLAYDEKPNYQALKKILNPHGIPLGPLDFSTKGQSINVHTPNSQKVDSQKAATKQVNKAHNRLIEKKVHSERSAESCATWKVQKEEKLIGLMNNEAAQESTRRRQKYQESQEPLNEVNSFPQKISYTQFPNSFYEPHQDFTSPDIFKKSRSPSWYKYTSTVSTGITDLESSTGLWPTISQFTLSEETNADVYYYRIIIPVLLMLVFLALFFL", "conditions": "VRK2; 1000 nM; read-out: Percent Control"}, "kinome (kinase panel) [24]": {"target": "T24, kinome (kinase panel) (Homo sapiens, UniProt Q13163)", "T24 construct": "purchased Eurofins DiscoverX", "T24 sequence (Q13163 whole entry)": "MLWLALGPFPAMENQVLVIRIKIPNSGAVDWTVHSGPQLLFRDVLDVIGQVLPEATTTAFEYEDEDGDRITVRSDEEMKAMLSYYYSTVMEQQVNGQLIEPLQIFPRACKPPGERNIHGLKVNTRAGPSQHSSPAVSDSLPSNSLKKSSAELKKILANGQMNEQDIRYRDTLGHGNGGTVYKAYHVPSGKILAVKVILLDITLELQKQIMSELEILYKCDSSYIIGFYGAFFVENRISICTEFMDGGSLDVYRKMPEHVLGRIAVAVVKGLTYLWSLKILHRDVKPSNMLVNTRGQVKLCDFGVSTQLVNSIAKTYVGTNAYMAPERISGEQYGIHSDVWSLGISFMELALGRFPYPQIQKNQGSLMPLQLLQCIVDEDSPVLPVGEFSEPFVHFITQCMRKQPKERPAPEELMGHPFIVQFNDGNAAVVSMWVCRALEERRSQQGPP", "conditions": "MEK5 (Entrez MAP2K5); 1000 nM; read-out: Percent Control"}, "kinome (kinase panel) [25]": {"target": "T25, kinome (kinase panel) (Homo sapiens, UniProt Q9NWZ3)", "T25 construct": "purchased Eurofins DiscoverX", "conditions": "IRAK4; 1000 nM; read-out: Percent Control"}, "kinome (kinase panel) [26]": {"target": "T26, kinome (kinase panel) (Homo sapiens, UniProt P0C1S8)", "T26 construct": "purchased Eurofins DiscoverX", "conditions": "WEE2; 1000 nM; read-out: Percent Control"}, "kinome (kinase panel) [27]": {"target": "T27, kinome (kinase panel) (Homo sapiens, UniProt Q8WXR4)", "T27 construct": "purchased Eurofins DiscoverX", "conditions": "MYO3B; 1000 nM; read-out: Percent Control"}, "kinome (kinase panel) [28]": {"target": "T28, kinome (kinase panel) (Homo sapiens, UniProt P45985)", "T28 construct": "purchased Eurofins DiscoverX", "conditions": "MEK4 (Entrez MAP2K4); 1000 nM; read-out: Percent Control"}, "kinome (kinase panel) [29]": {"target": "T29, kinome (kinase panel) (Homo sapiens, UniProt Q96PY6)", "T29 construct": "purchased Eurofins DiscoverX", "conditions": "NEK1; 1000 nM; read-out: Percent Control"}, "kinome (kinase panel) [30]": {"target": "T30, kinome (kinase panel) (Homo sapiens, UniProt Q9Y6E0)", "T30 construct": "purchased Eurofins DiscoverX", "T30 sequence (Q9Y6E0 whole entry)": "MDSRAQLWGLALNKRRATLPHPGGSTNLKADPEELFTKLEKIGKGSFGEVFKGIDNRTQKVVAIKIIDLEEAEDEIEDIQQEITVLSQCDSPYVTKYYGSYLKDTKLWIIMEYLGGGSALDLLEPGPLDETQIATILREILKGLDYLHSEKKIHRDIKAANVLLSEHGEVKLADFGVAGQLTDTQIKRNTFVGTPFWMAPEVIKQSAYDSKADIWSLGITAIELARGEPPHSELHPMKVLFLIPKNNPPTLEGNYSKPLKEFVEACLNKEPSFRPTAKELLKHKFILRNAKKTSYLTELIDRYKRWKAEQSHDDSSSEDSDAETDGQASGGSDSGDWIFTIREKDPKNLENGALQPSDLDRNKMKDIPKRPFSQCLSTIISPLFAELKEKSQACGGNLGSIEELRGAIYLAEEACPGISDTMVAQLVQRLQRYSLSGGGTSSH", "conditions": "MST3 (Entrez STK24); 1000 nM; read-out: Percent Control"}, "kinome (kinase panel) [31]": {"target": "T31, kinome (kinase panel) (Homo sapiens, UniProt Q15759)", "T31 construct": "purchased Eurofins DiscoverX", "conditions": "p38-beta (Entrez MAPK11); 1000 nM; read-out: Percent Control"}, "kinome (kinase panel) [32]": {"target": "T32, kinome (kinase panel) (Homo sapiens, UniProt Q00536)", "T32 construct": "purchased Eurofins DiscoverX", "conditions": "PCTK1 (Entrez CDK16); 1000 nM; read-out: Percent Control"}}}
{"smiles": "CN(C)C(=O)c1cc2cnc(Nc3ccc(-c4csc5c(=O)cc(N6CCOCC6)oc45)cc3)nc2n1C1CCCC1", "note": "[SRX3177]", "values": [{"measurement": "remaining binding at 1 µM", "setting": "kinome (kinase panel) [1]", "value": 100, "unit": "%"}, {"measurement": "remaining binding at 1 µM", "setting": "kinome (kinase panel) [2]", "value": 100, "unit": "%"}, {"measurement": "remaining binding at 1 µM", "setting": "kinome (kinase panel) [3]", "value": 41, "unit": "%"}, {"measurement": "remaining binding at 1 µM", "setting": "kinome (kinase panel) [4]", "value": 76, "unit": "%"}, {"measurement": "remaining binding at 1 µM", "setting": "kinome (kinase panel) [5]", "value": 19, "unit": "%"}, {"measurement": "remaining binding at 1 µM", "setting": "kinome (kinase panel) [6]", "value": 57, "unit": "%"}, {"measurement": "remaining binding at 1 µM", "setting": "kinome (kinase panel) [7]", "value": 83, "unit": "%"}, {"measurement": "remaining binding at 1 µM", "setting": "kinome (kinase panel) [8]", "value": 97, "unit": "%"}, {"measurement": "remaining binding at 1 µM", "setting": "kinome (kinase panel) [9]", "value": 100, "unit": "%"}, {"measurement": "remaining binding at 1 µM", "setting": "kinome (kinase panel) [10]", "value": 40, "unit": "%"}, {"measurement": "remaining binding at 1 µM", "setting": "kinome (kinase panel) [11]", "value": 66, "unit": "%"}, {"measurement": "remaining binding at 1 µM", "setting": "kinome (kinase panel) [12]", "value": 87, "unit": "%"}, {"measurement": "remaining binding at 1 µM", "setting": "kinome (kinase panel) [13]", "value": 71, "unit": "%"}, {"measurement": "remaining binding at 1 µM", "setting": "kinome (kinase panel) [14]", "value": 34, "unit": "%"}, {"measurement": "remaining binding at 1 µM", "setting": "kinome (kinase panel) [15]", "value": 34, "unit": "%"}, {"measurement": "remaining binding at 1 µM", "setting": "kinome (kinase panel) [16]", "value": 99, "unit": "%"}, {"measurement": "remaining binding at 1 µM", "setting": "kinome (kinase panel) [17]", "value": 100, "unit": "%"}, {"measurement": "remaining binding at 1 µM", "setting": "kinome (kinase panel) [18]", "value": 100, "unit": "%"}, {"measurement": "remaining binding at 1 µM", "setting": "kinome (kinase panel) [19]", "value": 40, "unit": "%"}, {"measurement": "remaining binding at 1 µM", "setting": "kinome (kinase panel) [20]", "value": 86, "unit": "%"}, {"measurement": "remaining binding at 1 µM", "setting": "kinome (kinase panel) [21]", "value": 77, "unit": "%"}, {"measurement": "remaining binding at 1 µM", "setting": "kinome (kinase panel) [22]", "value": 100, "unit": "%"}, {"measurement": "remaining binding at 1 µM", "setting": "kinome (kinase panel) [23]", "value": 21, "unit": "%"}, {"measurement": "remaining binding at 1 µM", "setting": "kinome (kinase panel) [24]", "value": 12, "unit": "%"}, {"measurement": "remaining binding at 1 µM", "setting": "kinome (kinase panel) [25]", "value": 45, "unit": "%"}, {"measurement": "remaining binding at 1 µM", "setting": "kinome (kinase panel) [26]", "value": 100, "unit": "%"}, {"measurement": "remaining binding at 1 µM", "setting": "kinome (kinase panel) [27]", "value": 100, "unit": "%"}, {"measurement": "remaining binding at 1 µM", "setting": "kinome (kinase panel) [28]", "value": 79, "unit": "%"}, {"measurement": "remaining binding at 1 µM", "setting": "kinome (kinase panel) [29]", "value": 100, "unit": "%"}, {"measurement": "remaining binding at 1 µM", "setting": "kinome (kinase panel) [30]", "value": 93, "unit": "%"}, {"measurement": "remaining binding at 1 µM", "setting": "kinome (kinase panel) [31]", "value": 100, "unit": "%"}, {"measurement": "remaining binding at 1 µM", "setting": "kinome (kinase panel) [32]", "value": 21, "unit": "%"}]}
